The source of these data is US20210395698A1, “METHODS AND COMPOSITIONS FOR CULTIVATING PLURIPOTENT CELL SUSPENSIONS” (Life Technologies Corporation, priority 2020, published 2021).

“Also recorded” adds a separate entry of the source.

Experiment [1] deals with Gibco Human Episomal iPSCs and WA09 ESCs. As to the kind of experiment: Expansion and spheroid morphology with small molecules added continuously vs Day 1 only. Format: cell-based. Here is the method:
Cell morphology was assessed following exposure to formulations containing 3 μM CHIR99021 in continuous culture media vs exposure at day 1 only. iPSCs were grown in a 24 well non-tissue culture treated plate at 120 RPM on an orbital shaker platform and cell morphology was assessed on Day 5. In this experiment, the small molecules were added on Day 1 only or throughout the culture period. […] Cell expansion and morphology were assessed for PSC suspension cultures following incubation with the base PSC media formulation containing CHIR99021 alone or in combination with one or more of the other small molecules and/or anti-clumping agent. PSCs were grown in a 24 well non-tissue culture treated plate at 120 RPM on an orbital shaker platform and cell morphology was examined and cell expansion was assessed via viable cell counts on Day 5. In this experiment, the small molecules were either added on Day 1 only or throughout the culture period. In these figures, the x-axis indicates various formulations tested and the y-axis indicates the fold-change in viable cell counts from day 1 to day 5 of culture. Micrographs of the cell cultures at day 5 under certain conditions are also shown. […] It was surprising that the increase in fold-change could be accomplished through inclusion of CHIR99021 at the time of passage only (e.g., Day 1 only).

Another experiment concerns H9 (WA09) ESCs. As to the kind of experiment: ESC expansion in PSC basal medium with or without CHIR99021 vs mTeSR1. Particulars: 10 μM Y-27632 at passaging; Day 5. Format: cell-based, human. Here is the method:
PSC expansion using the PSC media formulations provided herein was compared to expansion in commercially available media. H9 (WA09) ESCs were expanded in PSC basal medium in the absence of CHIR99021, PSC basal medium in the presence of CHIR99021, and in the mTeSR1 media formulation (Stem Cell Technologies). PSCs were passaged using StemPro™ Accutase™ cell dissociation reagent and grown in 6 well non-tissue culture treated plates seeded at 150,000 viable cells/mL in 2 mL of media and agitated at 70 RPM on an orbital shaker platform. […] Cell expansion was assessed via viable cell counts on Day 5. Cultures were fed with 50% medium replacement performed daily.

The subject of the next experiment is iPSCs. The experiment in a line: DOE on balance of CHIR99021, Go6983 and BSA: spheroid formation, fold-expansion, Oct4 pluripotency. The settings on record: for concentration giving maximal fold change (DOE prediction profiler): iPSCs in suspension, preference stated across WA09 ESCs and Gibco Human Episomal iPSCs. Format: cell-based, human. Here is the method: DOE was conducted to assess the balance of CHIR99021, Go6983 (a broad-spectrum PKC inhibitor), and BSA in achieving optimum fold-expansion, while also providing support of maintenance of pluripotency. […] Variation in spheroid size resulting from the various culture conditions was assess by phase contrast imaging. […] At day 5 of culture spheroids were dissociated using StemPro Accutase and replated into 2D format for 24 hours. After 24 hours of growth, the cells were fixed, permeabilized and stained with DAPI and for Oct4 expression to determine the pluripotency of the dissociated cells. The number of cells expressing Oct4 was compared to the total number of cells expressing DAPI, enabling an estimation of the percentage of pluripotent stem cells obtained from the spheroids.
Various concentrations of Pinacidil, CHIR99021, Go6893, and BSA, with or without anti-clumping agent, was assessed for achieving fold-expansion of iPSCs in suspension culture. […] Overall, CHIR99021 facilitates spheroid formation and a balance of albumin and CHIR99021 maintains appropriate spheroid size.

Experiment [2] relates to Gibco Human Episomal iPSCs and WA09 ESCs. The experiment in a line: DOE of small molecules on PSC expansion in suspension culture (viable cell counts Day 5). Format: cell-based. The settings on record: for fold-expansion of PSCs: added to base PSC medium+1× RevitaCell, 24 well, 120 RPM, viable cell counts Day 5. As for the experimental part:
Design of Experiment (DOE) was conducted using Gibco Human Episomal induced pluripotent stem cells (iPSCs) and WA09 embryonic stem cells (ESCs) to determine the impact of the small molecules. These PSCs were seeded in base PSC medium+1× RevitaCell™ Supplement and grown in a 24 well non-tissue culture treated plate at 120 RPM on an orbital shaker platform and cell expansion was assessed via viable cell counts on Day 5. […] FIG. 1 depicts results from the assessment of various concentrations of an anti-clumping agent and individual small molecules CHIR99021, PD0325901, SP00125, BIRD796, and Go6983on the expansion of iPSCs and WA09 hESCs.

Experiment [3] concerns Gibco Human Episomal iPSCs. As to the kind of experiment: Optimal range of CHIR99021 in 100 mL PBS bioreactors: fold-change and viability. Format: cell-based. Here is the method:
The optimal range of CHIR99021 for use in the PSC Medium formulation if included in the formulation for everyday feeds was assessed. Gibco Human Episomal iPSCs were expanded in 100 mL PBS bioreactors in duplicate and cell counts were performed at the end of each passage. […] The sugar source (glucose/galactose) and the concentration of CHIR99021 was varied. The feed schedule was also modified to include every day vs. every-other-day feed schedules. Fold-change upon expansion and viability were assessed for each condition. CHIR99021 concentrations as low as 0.6 μM supported optimal cell expansion on an every-day medium exchange feed schedule (FIG. 11A) and viability on an every-day and every-other-day medium exchange feed schedule (FIG. 11B). […] (FIGS. 11A-11B).

Experiment [4] has as its system Gibco Human Episomal iPSCs. The experiment in a line: ROCKi comparison (Chroman I, Pinacidil, RevitaCell vs Y-27632) in PSC medium. The format is cell-based. Particulars: 1× RevitaCell, 60 μM Pinacidil; for spheroid morphology (size): 50 nM Chroman I, 10 μM Y-27632; for spheroid expansion: Chroman I vs 10 μM Y-27632, CHIR99021 containing PSC medium, 5 days. Here is the method:
Gibco Human Episomal iPSCs were expanded in non-tissue culture treated 6 well plates on an orbital shaker set to 70 RPM. The cells were passaged from 2D cultures using StemPro Accutase and grown in PSC Medium. Cells were seeded on Day 0 at a concentration of 150,000 cells/mL in a 2 mL volume, with a ROCK inhibitor added to the culture. […] Spheroids were grown over 5 days, with 50% medium replacement performed daily.

Experiment [5] has as its system Gibco Human Episomal iPSCs. The experiment in a line: ROCK inhibitor pairing with PSC base medium formulation. Format: cell-based. Particulars: ROCKi used at time of passaging. As for the experimental part: Following 5-day growth with 50% medium exchange daily and constant agitation on an orbital shake platform, fold-change upon expansion was assessed.
Experiment [6] concerns Gibco Human Episomal iPSCs. As to the kind of experiment: Spheroid growth and Oct4 pluripotency by seeding supplement (RevitaCell, Y-27632, Cellartis Supplement 3). Format: cell-based. As for the experimental part:
PSC fold-expansion and pluripotency maintenance was compared for spheroid cultures seeded with a ROCK inhibitor or with the Cellartis Supplement 3 of the commercially available Cellartis Def-CS 3D medium system and grown in the complete PSC medium provided herein. Gibco Human Episomal iPSCs were expanded in 24-well non tissue culture treated plates at 120 RPM on an orbital shaker platform in the complete PSC medium to determine whether the type of ROCKi or Supplement selected for use affects the overall spheroid growth. […] Overall spheroid growth and expansion was assessed after the cells had grown for 5 days in the 24 well plate (FIG. 15A). The pluripotency of the spheroids was also assessed after the cells had grown for 5 days in the 24 well plate (FIG. 15B). To assess pluripotency, spheroids were dissociated using StemPro Accutase and replated into 2D format for 24 hours. After 24 hours of growth, the cells were fixed, permeabilized and stained with DAPI and for Oct4 expression to determine the pluripotency of the dissociated cells. The number of cells expressing Oct4 was compared to the total number of cells expressing DAPI, enabling an estimation of the percentage of pluripotent stem cells obtained from the spheroids.

As for `Cc1cnc(-c2cnc(NCCNc3ccc(C#N)cn3)nc2-c2ccc(Cl)cc2Cl)[nH]1` [CHIR99021, 6-[[2-[[4-(2,4-dichlorophenyl)-5-(5-methyl-1H-imidazol-2-yl)-2-pyrimidinyl]amino]ethyl]amino]-3-pyridinecarbonitrile], the “spheroid morphology Day 5” value in experiment [1] (3 μM CHIR99021 included on a continual basis) is “aberrant differentiation was noted for some conditions”. Moreover, the fold-expansion entry in experiment [1] (CHIR99021 at various concentrations only at time of passaging) is reported as “effective at increasing fold-expansion”. The “spheroid morphology Day 5” value in experiment [1] (CHIR99021 included only at time of passaging (Day 1)) was “typical smooth edges and spheroid morphology; also recorded: maintain normal spheroidal morphology”. In the experiment with H9 (WA09) ESCs, the “fold-expansion compared to PSC basal medium without CHIR99021” value was “enhances fold-expansion” and the “fold-expansion compared to mTeSR1” value is “significantly enhanced fold-expansion”. Further, in the experiment on iPSCs, the “concentration giving maximal fold change (DOE prediction profiler)” value is “intermediate concentration”. Further, the spheroid formation entry with iPSCs (seeded with 10 μM Y-27632, 3 μM CHIR99021 present or absent) is “aids in spheroid formation”. In experiment [2] (CHIR99021 alone in base PSC medium formulation), the cell nucleation entry was “assisted in cell nucleation”. Also, the “fold-expansion of PSCs” value in experiment [2] was “significant improvement in fold-expansion”. The “CHIR99021 concentration supporting optimal cell expansion” value in experiment [3] (continuously in medium, every-day medium exchange) was no less than 0.6 µM. For the same compound, the “CHIR99021 concentration supporting viability” value in experiment [3] (every-day and every-other-day medium exchange) is no less than 0.6 µM. Besides, the “CHIR99021 concentration supporting optimal fold-expansion” value in experiment [3] (fed on every-other-day cadence) was “up to 1.5 μM”.

`COc1ccc2c(c1)C[C@H](C(=O)Nc1ccc(-c3cn[nH]c3)cc1OCCN(C)C)CO2` [Chroman I]: in experiment [4], the “spheroid morphology (size)” value is on record as “morphologically larger” and the spheroid expansion result is on record as “perform similarly”.

For the compound `COc1ccc2c(c1)c(C1=C(c3c[nH]c4ccccc34)C(=O)NC1=O)cn2CCCN(C)C` [Go6983], the “concentration giving maximal fold change (DOE prediction profiler)” value in the experiment with iPSCs was “exclusion of Go6983 and anti-clump agent is preferred”.

Turning to `O=C(NOC[C@H](O)CO)c1ccc(F)c(F)c1Nc1ccc(I)cc1F` [PD0325901], in experiment [2], the “fold-expansion of PSCs” value is recorded as “detrimental to overall PSC expansion”.

In the case of `CC(N/C(=N\C#N)Nc1ccncc1)C(C)(C)C` (stereo not drawn) [Pinacidil], in experiment [4], the “spheroid morphology (size)” value is recorded as “morphologically smaller” and the spheroid expansion result is on record as “inferior to 10 μM Y-27632”.

Turning to `O=C1c2ccccc2-c2n[nH]c3cccc1c23` [SP00125], in experiment [2], the “fold-expansion of PSCs” value is recorded as “detrimental to overall PSC expansion”.

Regarding `O=C(NCc1ccccc1)c1csc(Nc2ccncn2)n1` [Thiazovivin], in experiment [5], the “spheroid size relative to Pinacidil” value is on record as “Larger spheroids”.

As for `C[C@@H](N)[C@H]1CC[C@H](C(=O)Nc2ccncc2)CC1` [Y-27632, (R)-(+)-trans-4-(1-aminoethyl)-N-(4-pyridyl)cyclohexanecarboxamide], in experiment [4], the “spheroid morphology (size)” value is reported as “morphologically larger” and the spheroid expansion result is “optimal performance”. Also, the “spheroid size and morphology on Day 5” value in experiment [6] (added on day 1 in complete PSC medium, 24 well, 120 RPM) is on record as “most efficient with larger spheroids”. In addition, in experiment [6] (after 5 days, replated 24 hours), the “maintenance of pluripotency (Oct4 vs DAPI)” value is given as “maintain high levels of pluripotent stem cells”.
